In paper PMC11091220, “Metabolism-driven in vitro/in vivo disconnect of an oral ERɑ VHL-PROTAC” (Communications Biology, 2024):
Several values for one entry are separate records, joined by “and”; a condition that tells them apart may be missing. Identical values can stand only once. Like-named read-outs stand apart in the source and are kept apart here.

Columns and labels:
[1] = molecular target: T1, ERα (Homo sapiens, UniProt P03372); assay: ERα high throughput imaging degradation assay in MCF7 cells; assay type: cell-based; conditions: for Dmax: MCF7; for DC50: MCF7 cells, 20 to 24 hours; for ERa degradation (% vs fulv): Figure 6e, individual replicates
T1 construct: endogenous in cells; host or cells: MCF7 (also MCF7 engineered to express Cas9)
T1 sequence (P03372 1-595): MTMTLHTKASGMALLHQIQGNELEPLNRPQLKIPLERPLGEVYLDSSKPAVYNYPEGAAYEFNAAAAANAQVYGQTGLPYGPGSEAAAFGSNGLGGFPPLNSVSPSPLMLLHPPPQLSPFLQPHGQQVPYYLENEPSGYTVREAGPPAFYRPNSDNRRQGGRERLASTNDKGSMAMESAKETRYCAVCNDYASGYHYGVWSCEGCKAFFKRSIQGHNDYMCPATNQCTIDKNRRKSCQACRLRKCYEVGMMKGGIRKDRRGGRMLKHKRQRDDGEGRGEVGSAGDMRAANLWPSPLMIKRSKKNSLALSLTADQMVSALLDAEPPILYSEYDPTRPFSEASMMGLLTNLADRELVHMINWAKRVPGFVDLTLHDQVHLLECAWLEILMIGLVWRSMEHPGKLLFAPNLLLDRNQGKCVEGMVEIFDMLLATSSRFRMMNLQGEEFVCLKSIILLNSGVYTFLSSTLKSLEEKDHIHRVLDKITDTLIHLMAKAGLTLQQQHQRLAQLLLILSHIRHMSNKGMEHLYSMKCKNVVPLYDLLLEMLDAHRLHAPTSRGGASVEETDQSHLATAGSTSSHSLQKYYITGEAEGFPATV
Experimental: Cells were fixed, permeabilised and stained with anti-ERα (rabbit clone SP1, Thermo) and anti-PR (mouse clone PgR 636, Dako) antibodies followed by secondary AlexaFluor 594 goat anti-rabbit and AlexaFluor 488 goat anti-mouse IgG antibodies. Imaging was using the Thermo Cellinsight scanner and average fluorescence intensity was analysed using Genedata.

[2] = Chromatographic LogD; assay type: physicochemical; conditions: Waters Acquity BEH C18 column, pH 7.4
Experimental: An HPLC with UV detection using diode array detection over a wavelength range of 210-320 nm and confirmation by electrospray mass spectrometry (pos/neg ionisation) is used to determine the chromatographic LogD of compounds. Test compounds, calibrants, and QC samples are prepared as 10 mM stocks in DMSO and further diluted to a final concentration of 0.6 mM in DMSO. […] The chromatographic system is calibrated using standards with known literature values of octanol-water partition coefficient at pH 7.4 (logD7.4) and retention factors, k’, of calibrants, QCs, and samples calculated using equation: k’=(rt-t0)/t0.

[3] = tested on: PR expression; assay: ER agonism: PR expression in Ishikawa cells by western blot; assay type: cell-based; conditions: for PR expression (% vs 10 nM E2): 100 nM compound, individual replicates; for PR expression in the Ishikawa endometrial cell line: 100 nM, 48 h
Experimental: Fig. 8 Evidence of ER agonism of AZ’6421 and compound 8 in vitro and in vivo. a 100 nM compound or 10 nM estradiol (E2) were incubated with Ishikawa cells for 48 h and lysates measured for PR expression by western blot. b Normalised rat uterine weight shown as % change from respective vehicle control after 4 days dosing. c Representative H&E stained images taken from sections of uterine horn after 4 days of dosing. d Total plasma exposure of AZ’6421 and its metabolite 8 following dosing of 100 mg/kg BID or 30 mg/kg BID AZ’6421. Plasma samples were taken 4 hr after the 4th dose, at the same time as the uterus was weighed and sectioned for H&E staining.
Cells were seeded into 12-well tissue culture-treated plates at 0.5 x 10^6 cells/well in phenol red-free RPMI containing 5% (v/v) charcoal-stripped FBS (F6765, Sigma) and left to adhere overnight. In experiments to detect agonism or for SILAC experiments, FBS was double stripped using activated charcoal. Cells were treated with compound or 0.1% DMSO vehicle control for the times indicated prior to being lysed in Pierce RIPA buffer (Thermo Scientific), supplemented with protease and phosphatase inhibitors. Expression levels of proteins were determined by standard western blotting techniques (BioRad 4%-12% Bis-Tris gels). Antibodies were diluted in 5% milk-PBS-Tween and protein levels were detected using Pierce WestDura chemiluminescent reagents followed by visualisation and quantification on a Syngene ChemiGenius Imager. Where blots were quantified, protein levels were normalised to beta-actin or vinculin control and expressed as % of vehicle control.

[4] = Plasma exposure of AZ’6421 and metabolite 8 in CTC174 PDX mice (free, cover over DC90); assay type: in vivo, mouse
Experimental: Mice were randomised into groups of 5 once tumour sizes reached approximately 0.3 to 0.4 cm^3. A vehicle control or AZ’6421 1, 3, 10, 30, and 100 mg/kg were dosed orally, once daily (QD) or twice daily (BID) in 5% v/v DMSO, 20% v/v Solutol HS15 in purified water formulation. AZD9833 was dosed once daily at 100 mg/kg in 40% TEG/60% (of 12.5%) SBE-β-CD formulation. Mice were dosed for 4 days and tumours were harvested 6 hours after the last dose. Tumour tissue was split into 3 and immediately snap-frozen in liquid nitrogen for subsequent analysis. Plasma samples were also taken at the end of the study by terminal cardiac bleed under isoflurane anaesthesia to measure pharmacokinetics and ensure the expected exposure was reached during the dosing period.
Each plasma sample ([…]) was prepared using an appropriate dilution factor, and compared against an 11-point standard calibration curve (1-10000 nM) prepared in DMSO and spiked into blank plasma. Acetonitrile ([…]) was added with the internal standard, followed by centrifugation at 3000 rpm for 10 minutes. The supernatant ([…]) was then diluted in […] acetonitrile:water (75:25) and analyzed via UPLC-MS/MS.
The MS/MS instrument used was either a Waters XEVO® TQ-S, Waters XEVO® TQ-D, or API 4000 (AB Sciex). The ultra-mass spectrometer used for sample analysis was completed in the MRM mode (MS/MS). Reverse-phase HPLC with a C18 column was used to separate the analytes. A mobile phase of 99% water/0.1% formic acid (solvent A) and a solvent phase of 99% acetonitrile/0.1% formic acid (solvent B) was used. A generic LC gradient elution was used at a flow rate of 0.5 mL/min with 95% solvent A and 5% solvent B for 0.3 min after which the concentration of solvent B was increased to 95% over 0.9 min before restoring it back to 5% for the remaining 0.5 min. Mass spectrometer methods were optimised for each compound.

[5] = reverse-phase HPLC, read-out: chrom LogD
[6] = reversed-phase HPLC, Table 2 source data, read-out: ChromLogD

Cc1ncsc1-c1ccc(CNC(=O)[C@@H]2C[C@@H](O)CN2C(=O)[C@@H](NC(=O)COCCCOCCCOc2cc(F)c([C@@H]3c4[nH]c5ccccc5c4C[C@@H](C)N3CC(C)(C)F)c(F)c2)C(C)(C)C)cc1 [Compound 5]
Degradation vs fulvestrant ([1]; Log M -7.0, listed as AZ'6421): 101.3% and 100.0% and 100.9% and 100.7% and 96.8% and 100.1% and 99.4% and 99.7%
Dmax ([1]; MCF7, read-out: ERα imaging Dmax, 0% vehicle control, 100% fulvestrant): 100 ± 1%
DC50 [1]: 400 ± 100 pM
ERa degradation (% vs fulv) ([1]; log[compound] (M) -6.52, listed as AZ'6421): 99.33% and 99.93% and 101.36% and 100.78% and 99.17% and 100.53% and 100.63% and 100.07% and 100.14% and 100.02%
ERa degradation (% vs fulv) ([1]; log[compound] (M) -7.00, listed as AZ'6421): 101.32% and 100.02% and 100.91% and 100.71% and 100.90% and 96.75% and 100.07% and 99.39% and 100.12% and 99.67%
ERa degradation (% vs fulv) ([1]; log[compound] (M) -7.51, listed as AZ'6421): 100.79% and 99.35% and 100.85% and 99.32% and 100.51% and 92.08% and 99.13% and 99.41% and 100.03% and 98.51%
ERa degradation (% vs fulv) ([1]; log[compound] (M) -9.00, listed as AZ'6421): 93.78% and 65.44% and 89.78% and 70.27% and 72.25% and 75.33% and 76.06% and 75.57% and 73.41% and 66.07%
ERa degradation (% vs fulv) ([1]; log[compound] (M) -9.51, listed as AZ'6421): 66.11% and 33.08% and 64.57% and 26.47% and 39.19% and 41.32% and 37.58% and 27.55% and 33.68% and 36.35%
ERa degradation (% vs fulv) ([1]; log[compound] (M) -9.90, listed as AZ'6421): 38.07% and 5.08% and 43.62% and 16.97% and 24.51% and 17.96% and 13.58% and 13.52% and 2.56% and 2.84%
ERa degradation (% vs fulv) ([1]; log[compound] (M) -10.51, listed as AZ'6421): 17.15% and -10.39% and 19.63% and 15.57% and 7.27% and 25.30% and 2.21% and -11.02% and -6.17% and -0.64%
ERa degradation (% vs fulv) ([1]; log[compound] (M) -10.90, listed as AZ'6421): 22.79% and -6.31% and 31.83% and 8.09% and 2.16% and 2.02% and 3.46% and -2.88% and 3.42% and 4.13%
ERa degradation (% vs fulv) ([1]; log[compound] (M) -11.51, listed as AZ'6421): 16.49% and -4.42% and 21.83% and -8.62% and -7.44% and -0.35% and 7.90% and 8.64% and 8.25% and -5.38%
ERa degradation (% vs fulv) ([1]; log[compound] (M) -12.51, listed as AZ'6421): 22.96% and -5.76% and 24.26% and -2.82% and -3.01% and -3.46% and -11.46% and 15.61% and -2.65% and -10.83%
chromatographic logD [2, 5]: 6.6 ± 0.4
chromatographic logD [2, 6]: 6.6
PR expression (% vs 10 nM E2) ([3]; listed as AZ'6421): 0.39% and 0.32%
PR expression in the Ishikawa endometrial cell line [3]: failed to induce PR expression
cover for target engagement by plasma drug concentration ([4]; 100 mg/kg dose): free plasma exposure > free DC90
fraction converted to 8 within 2 hours ([4]; 100 mg/kg, from Fig. 6d): 7%

C[C@@H]1Cc2c([nH]c3ccccc23)[C@@H](c2c(F)cc(OCCC(=O)O)cc2F)N1CC(C)(C)F [Compound 8]
Dmax ([1]; 0% vehicle control, 100% fulvestrant, read-out: ERα imaging Dmax): 86 ± 4%
DC50 [1]: 500 ± 100 pM
ERa degradation (% vs fulv) ([1]; log[compound] (M) -6.52): 86.16% and 85.41% and 90.14% and 89.92% and 86.68% and 83.66% and 85.58% and 80.53%
ERa degradation (% vs fulv) ([1]; log[compound] (M) -7.00): 65.22% and 84.95% and 90.84% and 90.97% and 84.15% and 85.62% and 84.72% and 83.12%
ERa degradation (% vs fulv) ([1]; log[compound] (M) -7.51): 87.11% and 87.02% and 90.35% and 91.70% and 85.51% and 86.15% and 84.84% and 84.81%
ERa degradation (% vs fulv) ([1]; log[compound] (M) -7.90): 81.45% and 85.48% and 90.59% and 86.35% and 80.42% and 79.30% and 79.15% and 77.88%
ERa degradation (% vs fulv) ([1]; log[compound] (M) -8.52): 80.28% and 76.86% and 80.57% and 81.16% and 72.31% and 67.13% and 75.58% and 76.43%
ERa degradation (% vs fulv) ([1]; log[compound] (M) -9.00): 64.37% and 61.04% and 63.02% and 63.61% and 52.14% and 45.07% and 64.32% and 69.99%
ERa degradation (% vs fulv) ([1]; log[compound] (M) -9.51): 21.08% and 35.46% and 24.68% and 25.02% and 22.82% and 21.75% and 38.96% and 36.82%
ERa degradation (% vs fulv) ([1]; log[compound] (M) -9.90): 20.56% and 6.22% and 6.66% and 18.09% and -5.08% and 24.12% and -6.47% and -3.82%
ERa degradation (% vs fulv) ([1]; log[compound] (M) -10.51): -1.75% and -2.12% and 13.25% and 9.62% and 10.07% and 23.66% and -5.98% and -1.61%
ERa degradation (% vs fulv) ([1]; log[compound] (M) -10.90): -0.94% and -3.29% and -5.11% and -4.81% and 28.56% and 0.42% and 1.50% and -12.94%
ERa degradation (% vs fulv) ([1]; log[compound] (M) -11.51): 5.64% and 1.40% and -9.86% and -6.66% and -0.74% and -8.00% and -7.44% and -13.98%
ERa degradation (% vs fulv) ([1]; log[compound] (M) -12.51): -13.89% and 2.41% and -4.59% and -2.38% and -17.18% and -3.64% and -7.40% and -8.33%
chromatographic logD [2, 5]: 3.8
chromatographic logD [2, 6]: 3.8
PR expression (% vs 10 nM E2) [3]: 4.18% and 6.31%
PR expression in the Ishikawa endometrial cell line [3]: induced PR expression to a similar extent as AZD9496
free plasma concentration, fold above the compounds DC90 ([4]; AZ’6421 efficacy study): > 10 fold
free plasma concentration, fold higher than free AZ’6421 ([4]; steady state, AZ’6421 efficacy study): ~ 10 fold
